Experimental data: PMC2669215, “SVOP Is a Nucleotide Binding Protein” (PLoS ONE, 2009)

Experiments:
SVOP-FLAG [1] = target: T1, SVOP-FLAG (Rattus norvegicus, UniProt Q9Z2I7); experiment: competition with 8-azido-ATP[γ] biotin photoaffinity labeling, western blot; assay type: binding; details: read-out: half maximum inhibition concentration
T1 construct: full length (548 residues), C-terminal FLAG tag (DYKDDDK) kept; expressed in HEK293, purified on anti-FLAG M2 gel
T1 sequence (Q9Z2I7 1-548): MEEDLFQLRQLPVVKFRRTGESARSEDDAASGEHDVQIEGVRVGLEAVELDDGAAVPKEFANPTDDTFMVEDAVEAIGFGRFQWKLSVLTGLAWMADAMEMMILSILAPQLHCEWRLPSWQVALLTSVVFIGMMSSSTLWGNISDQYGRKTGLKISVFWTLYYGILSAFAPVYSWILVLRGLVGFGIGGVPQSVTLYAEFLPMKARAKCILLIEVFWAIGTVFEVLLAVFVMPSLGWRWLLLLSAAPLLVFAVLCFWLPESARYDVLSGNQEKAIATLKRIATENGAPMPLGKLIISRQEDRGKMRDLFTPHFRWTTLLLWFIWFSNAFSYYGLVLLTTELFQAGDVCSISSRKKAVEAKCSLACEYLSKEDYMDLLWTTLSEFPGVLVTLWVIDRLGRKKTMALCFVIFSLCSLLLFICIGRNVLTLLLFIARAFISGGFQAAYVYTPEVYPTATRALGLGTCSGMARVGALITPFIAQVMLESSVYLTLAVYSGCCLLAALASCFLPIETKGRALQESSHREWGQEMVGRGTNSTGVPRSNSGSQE

SVOP-FLAG [2] = target: T1, SVOP-FLAG; experiment: as above; assay type: binding; details: 100 µM 8-azido-ATP[γ] biotin, pH 7.4, on ice

IC50 (SVOP-FLAG [1]) | Structure (SMILES) | decrease of labeling at 1 mM (SVOP-FLAG [2])
~750 µM | Nc1ncnc2c1ncn2[C@@H]1O[C@H](COP(=O)(O)OP(=O)(O)OP(=O)(O)O)[C@@H](O)[C@H]1O [ATP] | 
 | Nc1ccn([C@@H]2O[C@H](COP(=O)(O)OP(=O)(O)OP(=O)(O)O)[C@@H](O)[C@H]2O)c(=O)n1 [CTP] | TTP and CTP produced the least inhibition
 | Nc1nc2c(ncn2[C@@H]2O[C@H](COP(=O)(O)OP(=O)(O)OP(=O)(O)O)[C@@H](O)[C@H]2O)c(=O)[nH]1 [GTP] | ATP, GTP and NAD displayed the strongest inhibition
~250 µM | NC(=O)c1ccc[n+]([C@@H]2O[C@H](COP(=O)(O)OP(=O)(O)OC[C@H]3O[C@@H](n4cnc5c(N)ncnc54)[C@H](O)[C@@H]3O)[C@@H](O)[C@H]2O)c1 [NAD] | 
 | Cc1cn([C@H]2C[C@H](O)[C@@H](COP(=O)(O)OP(=O)(O)OP(=O)(O)O)O2)c(=O)[nH]c1=O [TTP] | TTP and CTP produced the least inhibition
